Columns and labels:
LecA [1] = molecular target: T1, LecA (Pseudomonas aeruginosa, UniProt Q05097); assay: Competitive binding assay for LecA based on fluorescence polarization; design: species or system P. aeruginosa
T1 construct: made in house; host or cells: E. coli (plasmid pET25-pail)
Procedure: The four thiols 17, 18, 24 and 25 as well as three disulfides 26a, 26b and 27 were then evaluated for their activity against LecA using a competitive binding assay based on fluorescence polarization (Fig. 4B). […]
Expression and purification of LasB and LecA
LecA was expressed recombinantly using E. coli pET25-pail, whereas LasB was isolated from P. aeruginosa PA14 culture supernatant as described previously. 1,2
LecA labeling with fluorescein was performed in analogy to Sommer et al. 3 and Beshr et al.4 To this end fluorescein isothiocyanate (FITC) was freshly dissolved in carbonate-bicarbonate buffer with pH of 9.3 at a concentration of 3 mg mL-1. Subsequently, 66 µL of this FITC solution was combined with 1.4 mL of LecA at a concentration of 60 µM in carbonate-bicarbonate buffer, pH 9.3. The resulting mixture was then incubated at 25 °C with shaking at 500 rpm for 1 hour. Then, extensive washing with PBS/Ca2+ in a 5 kDa molecular weight cutoff centrifugal concentrator was performed to remove excess dye and buffer the labelled protein. […]
Competitive binding assay for LecA
The procedure for the fluorescence polarization-based competitive binding assay for LecA was performed as reported by Joachim et al. with modifications. 1 The assay was performed in TBS/Ca2+ buffer (20 mM Tris, 137 mM NaCl, 2.6 mM KCl at pH 7.4 supplemented with 1 mM CaCl 2 and contained 5% DMSO). The final protein concentration in the assay was 5 µM for LecA. Fluorescence intensities were recorded on a PheraStar FS plate reader (BMG Labtech GmbH, Germany) and polarization was calculated using MARS Data Analysis (BMG Labtech).
IC50 values were obtained from a four-parameter curve-fitting procedure. Averages and standard deviations were calculated from at least three independent experiments of technical

LecA [2] = molecular target: T1, LecA; assay: Surface plasmon resonance direct LecA binding assay (immobilized LecA); design: species or system P. aeruginosa
Text: Therefore, we measured the LecA affinity of thiol derivatives 17, 18, 24 and 25 and disulfides 26a, 26b and 27 using surface plasmon resonance (SPR) with LecA covalently immobilized on a sensor chip via amide coupling (Fig. 5 and Table 1). […] Thiols 17, 18, 24 and 25 reached equilibrium binding within 60 s of interaction with immobilized LecA, followed by their dissociation with moderate off-rates. […] Due to the very small off-rates for 26a, 26b and 27, these values have been calculated based on the response at […] of the injected compound and monitoring their dissociation for 30 min (Fig. S2 ^†). The observed very tight binding to immobilized LecA required optimization of the protein surface regeneration procedure. Effective conditions were identified as one injection of 50 mm isopropyl β-D-thiogalactoside in the running buffer, followed by one injection of 20 mm EDTA disodium salt in water. The regenerated chip surface was controlled using an injection of 1 to ensure that the activity of LecA was maintained.
Surface plasmon resonance direct LecA binding assay
SPR experiments were performed on a Reichert 2-channel SPR SR7500DC (Reichert Technologies Life Sciences, Buffalo, NY, USA) at 25 °C. For LecA immobilization, the surface of a HC1000M sensor chip (XanTec bioanalytics GmbH, Düsseldorf, Germany) was preequilibrated with borate buffer (1 M NaCl, 0.1 M sodium borate pH 9.0), followed by activation of the polycarboxylate hydrogel with 0.2 M N-hydroxysuccinimide (NHS) and 0.4 M 1-ethyl-3-(3-dimethylaminopropyl)carbodiimide hydrochloride (EDC‧HCl) in MilliQ water in both channels for 240 s (flow rate 10 μL/min) until the binding response reached 1200 RU.
Then, LecA (100 μg/mL) in 10 mM sodium acetate pH 3.6 was injected on the activated chip surface of one channel (injection time 420 s, flow rate 10 μL/min) and 6000 RU of LecA were immobilized. Unreacted NHS esters in both channels were blocked with 1 M ethanolamine hydrochloride in MilliQ water pH 8.5 (injection time 360 s, flow rate 10 μL/min).
Test compound stock solutions were prepared in DMSO (20 mM stocks for monovalent LecA inhibitors, 20 µM stocks for divalent LecA inhibitors) and were subsequently diluted in 10 mM phosphate buffer (pH 7.4, 2.7 mM KCl, 137 mM NaCl, 100 μM CaCl2) to obtain solutions with […]
Monovalent inhibitors 17, 18, 24 and 25 were injected for 120 s (flow rate 50 μL/min) at concentrations ranging from 0.39–100 µM. Divalent inhibitors 26a, 26b and 27 were injected for 120 s (flow rate 50 μL/min) at concentrations 50–350 nM. The chip surface was regenerated after each inhibitor injection by one injection of 50 mM IPTG in running buffer (10 mM phosphate buffer, pH 7.4, 2.7 mM KCl, 137 mM NaCl, 100 μM CaCl2, 2% DMSO) followed by one injection 20 mM EDTA disodium salt in MilliQ water, and then followed by three injections of the running buffer (injection time 120 s, flow rate 50 μL/min). 100 µM pNP-Gal (1) in running buffer was injected before each analyte to monitor and ensure chip regeneration and […]
Affinity/equilibrium analysis was performed for 1 on the same chip. A stock solution of 1 (10 mM in PBS/CaCl2 buffer) was prepared, then diluted to the required concentrations in running buffer and injected at 1.56–400 µM (injection time 60 s, flow rate 50 μL/min) without regeneration steps. Data analysis was performed using TraceDrawer software (Ridgeview Instruments) using a 1:1 binding model to fit the experimental data. Spikes at the end of the injections were removed in TraceDrawer during the data analysis.

Kinetic solubility = format: physicochemical; conditions: aqueous buffer, kinetic from dmso stock; 10 mm PBS with 2% DMSO at 37 °C

T1 sequence (Q05097 whole entry): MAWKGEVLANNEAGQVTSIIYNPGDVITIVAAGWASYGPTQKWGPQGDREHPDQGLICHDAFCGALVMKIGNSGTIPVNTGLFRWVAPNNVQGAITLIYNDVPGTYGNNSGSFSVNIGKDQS

## CC(C)CC(SSC(CC(C)C)C(=O)Nc1ccc(S[C@@H]2O[C@H](CO)[C@H](O)[C@H](O)[C@H]2O)cc1)C(=O)Nc1ccc(S[C@@H]2O[C@H](CO)[C@H](O)[C@H](O)[C@H]2O)cc1 (some centres unmarked) [Compound 27]
LecA [1]
  IC50: 5700 nM
LecA [2]
  Kd: 4.5 ± 0.4 nM
LecA [2]; SPR, immobilized LecA
  k a: 5.2 ± 0.6 ×10^4 M^−1 s^−1
  k d: 2.2 ± 0.3 ×10^−4 s^−1
Kinetic solubility
  solubility kinetic: > 600 µM
